Measured values as given in patent US11083707B2, “Substituted indoline derivatives as dengue viral replication inhibitors” (JANSSEN PHARMACEUTICALS, INC., priority 2017, dated 2021).
Read-outs that look alike come from different tables or passages of the source.

Columns and labels:
[1] = test system: DENV-2 16681 strain; assay: DENV-2 antiviral assay (eGFP fluorescence, Vero cells); assay type: cell-based, Dengue virus; conditions: DENV-2 16681 eGFP, MOI 0.5, 3 days
Description: The antiviral activity of all the compounds of the invention was tested against the DENV-2 16681 strain which was labeled with enhanced green fluorescent protein (eGPF). The culture medium consists of minimal essential medium supplemented with 2% of heat-inactivated fetal calf serum, 0.04% gentamycin (50 mg/mL) and 2 mM of L-glutamine. Vero cells, obtained from ECACC, were suspended in culture medium and 25 μL was added to 384-well plates (2500 cells/well), which already contain the antiviral compounds. Typically, these plates contain a 5-fold serial dilution of 9 dilution steps of the test compound at 200 times the final concentration in 100% DMSO (200 nL). […] Finally, each plate contains wells which are assigned as virus controls (containing cells and virus in the absence of compound), cell controls (containing cells in the absence of virus and compound) and medium controls (containing medium in the absence of cells, virus and compounds). To the wells assigned as medium control, 25 μL of culture medium was added instead of Vero cells. Once the cells were added to the plates, the plates were incubated for 30 minutes at room temperature to allow the cells to distribute evenly within the wells. Next, the plates were incubated in a fully humidified incubator (37° C., 5% CO2) until the next day. Then, DENV-2 strain 16681, labeled with eGFP, was added at a multiplicity of infection (MOI) of 0.5. Therefore, 15 μL of virus suspension was added to all the wells containing test compound and to the wells assigned as virus control. In parallel, 15 μL of culture medium was added to the medium and cell controls. Next, the plates were incubated for 3 days in a fully humidified incubator (37° C., 5% CO2). At the day of the read out, the eGFP fluorescence was measured using an automated fluorescence microscope at 488 nm (blue laser). Using an in-house LIMS system, inhibition dose response curves for each compound were calculated and the half maximal effective concentration (EC50) was determined. Therefore, the percent inhibition (I) for every test concentration is calculated using the following formula: I=100*(ST-SCC)/(SVC-SCC), ST, SCC and SVC are the amount of eGFP signal in the test compound, cell control and virus control wells, respectively. The EC50 represents the concentration of a compound at which the virus replication is inhibited with 50%, as measured by a 50% reduction of the eGFP fluorescent intensity compared to the virus control. The EC50 is calculated using linear interpolation (Table 1).

[2] = in vitro; conditions: African green monkey
[3] = test system: DENV-4 strain H241; assay: Tetravalent RT-qPCR assay Protocol A, serotype 4; assay type: cell-based; conditions: Dengue virus, DENV4, 72 h; RT-qPCR serotype 4 H241, Vero cells, day 3
Description: (§1) The antiviral activity of the compounds of the invention was tested against DENV-1 strain TC974#666 (NCPV), DENV-2 strain 16681, DENV-3 strain H87 (NCPV) and DENV-4 strain H241 (NCPV) in a RT-qPCR assay. Therefore, Vero cells were infected with either DENV-1, or -2, or -3, or -4 in the presence or absence of test compounds. At day 3 post-infection, the cells were lysed and cell lysates were used to prepare cDNA of both a viral target (the 3′UTR of DENV; Table 2) and a cellular reference gene (β-actin, Table 2). Subsequently, a duplex real time PCR was performed on a Lightcycler480 instrument. The generated Cp value is inversely proportional to the amount of RNA expression of these targets. Inhibition of DENV replication by a test compound results in a shift of Cp's for the 3′UTR gene. On the other hand, if a test compound is toxic to the cells, a similar effect on β-actin expression will be observed. The comparative ΔΔCp method is used to calculate EC50, which is based on the relative gene expression of the target gene (3′UTR) normalized with the cellular housekeeping gene (β-actin). In addition, CC50 values are determined based on the Cp values acquired for the housekeeping gene β-actin.
(§2) The culture medium consisted of minimal essential medium supplemented with 2% of heat-inactivated fetal calf serum, 0.04% gentamycin (50 mg/mL) and 2 mM of L-glutamine. Vero cells, obtained from ECACC, were suspended in culture medium and 75 μL/well was added in 96-well plates (10000 cells/well), which already contain the antiviral compounds. […] In addition, each plate contains wells which are assigned as virus controls (containing cells and virus in the absence of compound) and cell controls (containing cells in the absence of virus and compound). Once the cells were added in the plates, the plates were incubated in a fully humidified incubator (37° C., 5% CO2) until the next day. Dengue viruses serotype-1, 2, 3 and 4 were diluted in order to obtain a Cp of ˜22-24 in the assay. Therefore, 25 μL of virus suspension was added to all the wells containing test compound and to the wells assigned as virus control. In parallel, 25 μL of culture medium was added to the cell controls. Next, the plates were incubated for 3 days in a fully humidified incubator (37° C., 5% CO2). After 3 days, the supernatant was removed from the wells and the cells were washed twice with ice-cold PBS (˜100 μL). The cell pellets within the 96-well plates were stored at −80° C. for at least 1 day. Next, RNA was extracted using the Cells-to-CT™ lysis kit, according to the manufacturer's guideline (Life Technologies). The cell lysates can be stored at −80° C. or immediately used in the reverse transcription step.
(§3) In preparation of the reverse transcription step, mix A (table 3A) was prepared and 7.57 μL/well was dispensed in a 96-well plate. After addition of 5 μL of the cell lysates, a five minute denaturation step at 75° C. was performed (table 3B). Afterwards, 7.43 μL of mix B was added (table 3C) and the reverse transcription step was initiated (table 3D) to generate cDNA.
(§4) Finally, a RT-qPCR mix was prepared, mix C (table 4A), and 22.02 μL/well was dispensed in 96-well LightCycler qPCR plates to which 3 μL of cDNA was added and the qPCR was performed according to the conditions in table 4B on a LightCycler 480.
(§5) Using the LightCycler software and an in-house LIMS system, dose response curves for each compound were calculated and the half maximal effective concentration (EC50) and the half maximal cytotoxic concentration (CC50) were determined (Tables 5-8).

[4] = in vitro; assay type: cell-based; conditions: African green monkey
Description: as §1, §2, §3, §4, §5

[5] = test system: DENV-2 strain 16681; assay: Tetravalent RT-qPCR assay Protocol A, serotype 2; assay type: cell-based; conditions: Dengue virus
Description: as §1, §2, §3, §4, §5

[6] = test system: DENV-1 strain TC974#666; assay: Tetravalent RT-qPCR assay Protocol A, serotype 1; assay type: cell-based; conditions: Dengue virus, DENV1, 72 h; RT-qPCR serotype 1 TC974#666, Vero cells, day 3
Description: as §1, §2, §3, §4, §5

[7] = test system: DENV-3 strain H87; assay: Tetravalent RT-qPCR assay Protocol A, serotype 3; assay type: cell-based; conditions: Dengue virus, DENV3, 72 h; RT-qPCR serotype 3 H87, Vero cells, day 3
Description: as §1, §2, §3, §4, §5

[8] = test system: Vero cells; conditions: African green monkey
[9] = DENV2, 72 h, RT-qPCR serotype 2 16681, Vero cells, day 3, read-out: EC50

Row | Compound | EC50 ([1]; Dengue virus, DENV2, Vero, 72 h) [nM] | melting point [°C] | CC50 [2] [nM] | EC50 [1] [nM] | EC50 [3] [nM] | CC50 at 3 days [4] [nM] | EC50 [5, 9] [nM] | EC50 [6] [nM] | EC50 [7] [nM] | CC50 [8] [nM] | EC50 ([5]; DENV2, Vero, 72 h) [nM]
1 | COc1cc(NC(C(=O)N2CCc3c(C)cc(OC(F)(F)F)cc32)c2ccc(Cl)cc2OCCCC(=O)O)cc(-n2cncn2)c1 (racemic) [Compound 16, 4-(5-chloro-2-(1-((3-methoxy-5-(1H-1,2,4-triazol-1-yl)phenyl)amino)-2-(4-methyl-6-(trifluoromethoxy)indolin-1-yl)-2-oxoethyl)phenoxy)butanoic acid] | 0.11 | 214 | 11000 | – | – | – | – | – | – | – | –
2 | COc1cc(NC(C(=O)N2CCc3c(C)cc(OC(F)(F)F)cc32)c2ccc(Cl)cc2OCCCC(=O)O)cc(-n2cncn2)c1 (single isomer, unassigned) [Compound 16B] | – | – | – | 0.069 | 5.3 | > 1000 | 0.055 | 0.092 | 0.87 | 6200 | –
3 | COc1cc(NC(C(=O)N2CCc3ccc(C(F)(F)F)cc32)c2ccc(Cl)cc2OCCCC(=O)O)cc(-n2cncn2)c1 (single isomer, unassigned) [Compound 11B] | – | – | – | 0.2 | 20 | > 2500 | 0.059 | 0.095 | 6.5 | 12000 | –
4 | COc1cc(NC(C(=O)N2CCc3ccc(OC(F)(F)F)cc32)c2ccc(Cl)cc2OCCC(C)(C)C(=O)O)cc(-n2cncn2)c1 (single isomer, unassigned) [Compound 14B] | – | – | – | 0.27 | 23 | 2300 | – | 0.22 | 5.5 | 9400 | 0.16
